Results reported in PubChem BioAssay (NCI).
Where “and” joins values, the source holds several entries; their conditions need not be identical. Equal values may be shown once.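 Values below derive from 48-hour exposures of cells grown in 96-well plates, with endpoints linearly interpolated between the two concentrations bracketing the appropriate inhibition level. GI50 = concentration required for 50% inhibition of growth. TGI marks complete inhibition of growth.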

Columns and labels:
Experiment in all cases: NCI tumour cell line growth inhibition, 48 h
SN12C renal = tested on: SN12C renal
NCI-H226 lung = tested on: NCI-H226 lung
SNB-75 CNS = tested on: SNB-75 CNS
EKVX NSCLC = tested on: EKVX NSCLC
HCT-15 colon = tested on: HCT-15 colon
SK-MEL-28 melanoma = tested on: SK-MEL-28 melanoma
DU-145 prostate = tested on: DU-145 prostate
MDA-N = tested on: MDA-N
SK-MEL-2 melanoma = tested on: SK-MEL-2 melanoma
DLD-1 colon = tested on: DLD-1 colon

| Structure (SMILES) | GI50 (SN12C renal) | TGI (SN12C renal) [µM] | GI50 (NCI-H226 lung) | TGI (NCI-H226 lung) | GI50 (SNB-75 CNS) | TGI (SNB-75 CNS) | GI50 (EKVX NSCLC) | TGI (EKVX NSCLC) | GI50 (HCT-15 colon) | TGI (HCT-15 colon) [µM] | GI50 (SK-MEL-28 melanoma) | TGI (SK-MEL-28 melanoma) | GI50 (DU-145 prostate) | TGI (DU-145 prostate) [µM] | GI50 (MDA-N) [µM] | TGI (MDA-N) [µM] | GI50 (SK-MEL-2 melanoma) | TGI (SK-MEL-2 melanoma) | TGI (DLD-1 colon) [µM] |
| --- | --- | --- | --- | --- | --- | --- | --- | --- | --- | --- | --- | --- | --- | --- | --- | --- | --- | --- | --- |
| CC[C@@]1(O)C(=O)NCc2c1cc1n(c2=O)Cc2cc3c(NC(C)=O)cccc3nc2-1 | > 100000 nM | > 100 | > 100 µM | > 100 µM | > 100000 nM | > 100 µM | > 100000 nM | > 100 µM | > 100000 nM | > 100 | > 100 µM | > 100 µM | > 100000 nM | > 100 | > 100 | > 100 | > 100000 nM | > 100 µM |  |
| CC1(C)OC(=O)C(=Cc2ccc([N+](=O)[O-])s2)C(=O)O1 |  | 31.6 |  | 60.5 µM |  |  |  | 31.8 µM |  | 14.2 |  | 34.6 µM |  | 30.9 |  | 32.5 |  |  |  |
| O=C(NC1C(=O)NNC1c1ccccc1Cl)c1ccccc1 (configuration not stated) |  | > 100 |  | > 100 µM |  | > 100 µM |  | > 100 µM |  | > 100 |  | > 100 µM |  |  |  |  |  | > 100 µM | > 100 |
| ClCCCCOC1CCCCO1 (configuration not stated) |  | > 100 |  | > 100 µM |  | > 100 µM |  | > 100 µM |  | > 100 |  | > 100 µM |  |  |  |  |  | > 100 µM | > 100 |
| Cn1cnc([N+](=O)[O-])c1Sc1nc2ccc([N+](=O)[O-])cc2[nH]1 |  |  |  | > 100 µM |  | 81.8 µM |  | 46.7 µM |  | 38.8 |  | 37.6 µM |  |  |  |  |  |  | 32.6 |
| O=c1[nH]c(SCc2ccccc2[N+](=O)[O-])nc2nc[nH]c12 |  | > 100 | 84.7 µM and 33.4 µM | > 100 µM and 98.3 µM | > 100000 nM and 49500 nM | > 100 µM |  | > 100 µM |  | > 100 |  | > 100 µM |  | > 100 |  | > 100 |  | > 100 µM |  |
| CC(C)COC(c1ccc2c(c1)OCO2)C(C)Br (configuration not stated) |  | 45 |  | 70.7 µM |  | 55.7 µM |  | 76 µM |  | 66.1 |  | > 100 µM |  | > 100 |  | 53.8 |  | 44.3 µM |  |
| COc1cc(NC(C)CCCN2C(=O)c3ccccc3C2=O)c2ncccc2c1OC (configuration not stated) | 66900 nM | > 100 | 33.3 µM | > 100 µM | 54400 nM | > 100 µM | 29700 nM | > 100 µM | 28400 nM | > 100 | 37.8 µM | > 100 µM | 41900 nM | > 100 |  |  | 29000 nM | > 100 µM |  |
| COc1cccc(/C=C\c2ccnc3ccccc23)c1 |  | > 10 |  | > 10 µM |  | > 10 µM |  | > 10 µM |  | > 10 |  | > 10 µM |  | > 10 |  | > 10 |  | > 10 µM |  |
| COC1=CC2CCN3Cc4cc5c(cc4C(C1O)C23)OCC5 (configuration not stated) | 1060 nM | 6.08 | 1.72 µM | 7.6 µM | 1240 nM | 6.24 µM | 4660 nM | 32.6 µM | 1310 nM | 8.49 | 3.46 µM | > 24.2 µM | 2560 nM | 21.2 |  |  | 14400 nM | > 43 µM |  |
| Cc1ccc(NC(=O)C(=O)CC(=O)c2ccccc2)cc1C |  | > 100 |  | > 100 µM |  | > 100 µM |  | > 100 µM |  | > 100 |  | > 100 µM |  |  |  |  |  |  | > 100 |
| Nc1ccc(C(=O)Nc2ccccc2N)cc1 |  | > 100 |  | > 100 µM |  | > 93.1 µM |  | > 100 µM |  | > 100 |  | > 100 µM |  | > 100 |  | > 100 |  | > 86.1 µM | > 100 |
| O=C(c1ccco1)c1c(C(F)(F)F)n([O-])c2ccc(F)cc2[n+]1=O | 1330 nM | 3.38 | 5.38 µM | 22.1 µM | 1590 nM | 7.91 µM | 2950 nM | 8.09 µM | 219 nM | 0.855 | 1.46 µM | 2.79 µM | 2240 nM | 7.04 |  |  | 910 nM | 2.47 µM |  |
| c1cc2c(c(NC3=NCCN3)c1)CCCC2 |  | > 100 |  | > 100 µM |  | > 100 µM |  | > 100 µM |  | > 100 |  | > 100 µM |  | > 100 |  | > 100 |  | > 100 µM |  |
| CNCCNc1nc2ccccc2c2c(=O)c3cccc(C)c3sc12 | 2040 nM | 8.37 | 7.19 µM | 16.7 µM | 1140 nM | 8.49 µM | 2730 nM | 9.87 µM | 1130 nM | 2.67 | 4.08 µM | 10.5 µM | 1890 nM | 6.52 |  |  | 1280 nM | 3.36 µM |  |
| CNc1ncc2cc(-c3cc(NC(=O)NCCC(C)(C)C)c(F)cc3C)c(C)nc2n1 | 485 nM and 411 nM | > 100 | 1.11 µM and 0.298 µM | > 100 µM | 949 nM and 1040 nM | 7.36 µM and 7.6 µM | 2540 nM and 1380 nM | 99.6 µM and > 10 µM | 407 nM and 429 nM | > 64.8 | < 0.01 µM and 0.0101 µM | 0.118 µM and 0.239 µM | 535 nM and 685 nM | > 100 |  |  | 27.7 nM and 42.6 nM | 0.143 µM and 0.265 µM |  |
